# Test results: US20060094710A1, “Piperidine-pyridazones and phthalazones as pde4 inhibitors” (Altana Pharma AG, priority 2002, published 2006)
row,melting point,SMILES
1,188 to 189 °C,COc1ccc(C2=NN(C3CCN(CC(=O)c4cc5ccccc5o4)CC3)C(=O)C3CC=CCC23)cc1OC (centres unmarked) [Compound 2]
2,118 to 121 °C,COc1ccc(C2=NN(C3CCN(C(=O)CCS(=O)(=O)CCNC(=O)N4CCOCC4)CC3)C(=O)C3CC=CCC23)cc1OC (centres unmarked) [Compound 5]
3,147 to 149 °C,"COc1ccc(C2=NN(C3CCN(Cc4ccc(-n5cnc6ccccc65)cc4)CC3)C(=O)[C@@H]3CC=CC[C@H]23)cc1OC.Cl [Compound 3, (4aS,8aR)-2-[1-(4-Benzimidazol-1-yl-benzyl)-piperidin-4-yl]-4-(3,4-dimethoxy-phenyl)-4a,5,8,8a-tetrahydro-2H-phthalazin-1-one hydrochloride]"
4,86 to 89 °C,COc1ccc(C2=NN(C3CCN(CCOCCN)CC3)C(=O)[C@@H]3CC=CC[C@H]23)cc1OC.Cl.Cl
5,169 to 170 °C,"COc1ccc(C2=NN(C3CCN(C(=O)CS(C)(=O)=O)CC3)C(=O)[C@@H]3CC=CC[C@H]23)cc1OC [Compound 1, (4aS,8aR)-4-(3,4-Dimethoxy-phenyl)-2-[1(2-methanesulfonyl-ethanoyl)-piperidin-4-yl]-4a,5,8,8a-tetrahydro-2H-phthalazin-1-one]"
6,87 to 90 °C,"COc1ccc(C2=NN(C3CCN(CCS(C)(=O)=O)CC3)C(=O)[C@@H]3CC=CC[C@H]23)cc1OC.Cl [Compound 11, (4aS,8aR)-4-(3,4-Dimethoxy-phenyl)-2-[1-(2-methanesulfonyl-ethyl)-piperidin-4-yl]-4a,5,8,8a-tetrahydro-2H-phthalazin-1-one hydrochloride]"
7,87 to 90 °C,"COCCN1CCC(N2N=C(c3ccc(OC)c(OC)c3)[C@H]3CC=CC[C@H]3C2=O)CC1.Cl [Compound 9, (4aS,8aR)-4-(3,4-Dimethoxy-phenyl)-2-[1-(2-methoxy-ethyl)-piperidin-4-yl]-4a,5,8,8a-tetrahydro-2H-phthalazin-1-one hydrochloride]"

row,SMILES,melting point
1,"COc1ccc(C2=NN(C3CCN(C(=O)CCCOc4ccc5[nH]c(=O)ccc5c4)CC3)C(=O)CC2)cc1OC [Compound 15, 6-(4-{4-[3-(3,4-Dimethoxy-phenyl)-6-oxo-5,6-dihydro-4H-pyridazin-1-yl]-piperidin-1-yl}-4-oxo-butoxy)-1H-quinolin-2-one]",169 to 171 °C
